The target in assay [1] is T1, C3 (Homo sapiens, UniProt P01024).
T1 construct: 250 μL of freshly drawn EDTA-normal human plasma (EDTA-NHP); from tissue; host or cells: normal human blood plasma (EDTA plasma; in A12 also citrate and heparin plasma)
Nature of the assay: iC3b fragment EIA: spontaneous C3 activation in EDTA-NHP incubated with increasing concentrations of polyhydroxyl compound in water. It counts as biochemical. The settings on record: 22° C. for 48 hr. As to the method:
FIG. 1. […] 250 μL of freshly drawn EDTA-normal human plasma (EDTA-NHP) was mixed with 0 to 250 μL of 4M β-D-glucose dissolved in deionized water. All reaction mixtures were brought up to a final reaction volume of 500 μL using deionized water as the diluent. Each reaction mixture was mixed thoroughly, incubated at 22° C. for 48 hr and assayed for iC3b fragment levels. A non-incubated control (-70° C.) was prepared by mixing 1 part EDTA-NHP with 1 part 4M β-D-glucose dissolved in deionized water. This control reaction mixture was stored at -70° C. until it was assayed in the iC3b fragment EIA along with the incubated experimental samples.
Several different polyhydroxyl compounds were individually dissolved in deionized water to obtain solutions of each compound at a concentration approaching saturation at 22° C. Freshly drawn EDTA-NHP was mixed with increasing concentrations of the polyhydroxyl compound to be tested keeping the final reaction volumes constant. For example, 250 μL of freshly drawn EDTA-NHP was mixed with 0 to 250 μL of the concentrated polyhydroxyl solution to be tested. All reaction mixtures were brought up to a final reaction volume of 500 μL using deionized water as the diluent. Each reaction mixture was mixed thoroughly and incubated at 22° C. for 48 hr. A non-incubated control was prepared for each experiment by mixing 1 part EDTA-NHP with 1 part of the concentrated polyhydroxyl solution to be tested. This control mixture was held at -70° C. until it was thawed out, along with the other experimental samples, and assayed for the occurrence of spontaneous complement activation. For this initial set of experiments, iC3b fragment levels were quantitated in all test samples using the Cytotech monoclonal antibody based EIA procedure. The first analyte selected to be measured was iC3b since, based on previously published data as outlined above, it was anticipated that the C3 protein would be the most susceptible to spontaneous activation upon storage of EDTA-NHP in vitro.
All of the EIA tests employed in these studies utilized solid-phase monoclonal antibody capture assay kit procedures (Cytotech, Inc., San Diego, Calif.). The procedure was basically the same for each EIA kit. Briefly, in the first step of each EIA assay, 100 μL of standards, controls and diluted test specimens were incubated at 22° C., i.e., room temperature, in duplicate polystyrene microtiter wells precoated with a capture monoclonal antibody which specifically reacted with the complement fragment or complex under investigation. During this first incubation period, complement fragments or complexes were bound to the monoclonal antibody coated microassay wells. A wash cycle removed unbound materials.
In the second step, 50 μL of horseradish peroxidase (HRP)-conjugated purified IgG antibody, which reacted with the captured complement fragment or complex analyte, was added to each well and incubated at 22° C. A wash cycle removed unbound conjugate.
In the third step, 100 μL of the HRP enzyme substrate ABTS (0.034% ABTS and 0.0126% H2 O2 in 100 mM sodium citrate buffer, pH 4.0) was added to each well and incubated at 22° C. The bound HRP-conjugatedantibody reacted with the ABTS substrate producing a green color which was proportional to the amount of specimen analyte bound. The HRP-enzymatic reaction was stopped upon addition of 50 μL 250 mM oxalic acid. The substrate color intensity present in each well was measured at 405 nm using an automated EIA microplate reader and the analyte concentration/mL in the original test specimen was determined for each analyte from the appropriate standard curve.
iC3b EIA: The capture mouse monoclonal antibody used to coat microtiter wells for the iC3b fragment EIA was Cytotech MoAb 013III-1.1.6.1 which reacts with a neoantigenic determinant expressed on the iC3b activation fragment of human C3.

Assay [2] deals with T2, Factor B (Homo sapiens, UniProt P00751).
T2 construct: from tissue; host or cells: normal human EDTA plasma (EDTA-NHP)
The assay can be described thus: polyhydroxyl compounds in Buffer B mixed with EDTA-NHP: Bb fragment EIA. It counts as biochemical. The conditions noted are these: final concentration 2M, 22° C. for 48 hr. As to the method:
An extensive series of experiments were conducted to examine the ability of a large variety of polyhydroxyl compounds to prevent the spontaneous activation of C in EDTA-NHP during in vitro storage at 22° C for 48 hr. EDTA-NHP was mixed with an equal volume of Buffer B containing the polyhydroxyl compound to be tested. In these experiments Buffer B consisted of 40 mM EDTA and 30 IU sodium heparin/mL dissolved in deionized water, pH 7.2. The final concentration of polyhydroxyl compound dissolved in Buffer B varied for each compound due to differences in solubility. For each set of experiments, EDTA-NHP was also diluted and mixed with an equal volume of PBS (untreated control). […] This conclusion was based upon the iC3b percent protection values determined for each of the polyhydroxyl compounds (treated samples) as listed in FIG. 14.
The concentrations, expressed as μg analyte/mL, of a number of different activation products of spontaneous complement activation were measured in the course of these experiments. In an effort to normalize the data obtained from the various determinations so that the results from different assays could be directly compared to one another, a percent protection value was calculated for each analyte measured. […]

T1 sequence (P01024 672-1663 limits assumed): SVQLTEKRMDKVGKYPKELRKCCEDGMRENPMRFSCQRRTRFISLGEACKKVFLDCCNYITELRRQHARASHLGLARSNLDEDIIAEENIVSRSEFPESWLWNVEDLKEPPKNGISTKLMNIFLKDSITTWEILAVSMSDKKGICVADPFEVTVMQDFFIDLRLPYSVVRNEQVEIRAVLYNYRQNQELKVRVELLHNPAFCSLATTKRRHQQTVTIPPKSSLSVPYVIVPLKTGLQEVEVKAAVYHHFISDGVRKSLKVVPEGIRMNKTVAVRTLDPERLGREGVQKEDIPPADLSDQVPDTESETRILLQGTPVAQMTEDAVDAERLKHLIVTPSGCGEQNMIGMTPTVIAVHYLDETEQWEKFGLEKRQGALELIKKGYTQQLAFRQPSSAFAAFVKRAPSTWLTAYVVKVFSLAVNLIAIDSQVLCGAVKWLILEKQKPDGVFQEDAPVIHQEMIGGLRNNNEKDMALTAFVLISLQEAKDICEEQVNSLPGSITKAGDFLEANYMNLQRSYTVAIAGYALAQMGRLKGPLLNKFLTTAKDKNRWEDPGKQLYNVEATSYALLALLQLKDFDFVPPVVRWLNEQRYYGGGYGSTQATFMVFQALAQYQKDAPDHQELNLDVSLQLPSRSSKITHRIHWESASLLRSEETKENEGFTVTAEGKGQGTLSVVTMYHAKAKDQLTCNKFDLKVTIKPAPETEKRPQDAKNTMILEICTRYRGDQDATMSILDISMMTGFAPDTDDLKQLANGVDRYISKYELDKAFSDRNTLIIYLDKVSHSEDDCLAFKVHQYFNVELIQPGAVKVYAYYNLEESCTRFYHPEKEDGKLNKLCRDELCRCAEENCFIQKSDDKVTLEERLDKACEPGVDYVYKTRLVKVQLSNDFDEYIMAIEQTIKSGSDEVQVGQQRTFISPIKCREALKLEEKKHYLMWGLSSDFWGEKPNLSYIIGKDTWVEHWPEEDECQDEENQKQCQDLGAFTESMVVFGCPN
T1 sequence (P01024 23-667 limits assumed): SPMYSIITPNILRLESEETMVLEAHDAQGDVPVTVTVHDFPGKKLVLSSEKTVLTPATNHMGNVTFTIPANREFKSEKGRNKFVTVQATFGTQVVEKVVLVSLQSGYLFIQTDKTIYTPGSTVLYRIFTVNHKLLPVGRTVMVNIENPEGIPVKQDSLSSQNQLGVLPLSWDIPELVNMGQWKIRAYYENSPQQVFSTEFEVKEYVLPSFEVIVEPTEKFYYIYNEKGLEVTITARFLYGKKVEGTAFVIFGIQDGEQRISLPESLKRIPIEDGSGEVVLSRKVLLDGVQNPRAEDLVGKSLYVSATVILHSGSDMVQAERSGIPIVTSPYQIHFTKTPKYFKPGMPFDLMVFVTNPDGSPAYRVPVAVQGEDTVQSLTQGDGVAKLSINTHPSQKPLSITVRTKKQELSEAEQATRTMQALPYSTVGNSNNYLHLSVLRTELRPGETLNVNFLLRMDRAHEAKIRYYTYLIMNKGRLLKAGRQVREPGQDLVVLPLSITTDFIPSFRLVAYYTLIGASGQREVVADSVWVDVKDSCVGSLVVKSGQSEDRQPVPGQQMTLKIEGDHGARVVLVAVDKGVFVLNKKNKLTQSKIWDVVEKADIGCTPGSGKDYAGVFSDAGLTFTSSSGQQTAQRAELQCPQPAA
T2 sequence (P00751 26-764): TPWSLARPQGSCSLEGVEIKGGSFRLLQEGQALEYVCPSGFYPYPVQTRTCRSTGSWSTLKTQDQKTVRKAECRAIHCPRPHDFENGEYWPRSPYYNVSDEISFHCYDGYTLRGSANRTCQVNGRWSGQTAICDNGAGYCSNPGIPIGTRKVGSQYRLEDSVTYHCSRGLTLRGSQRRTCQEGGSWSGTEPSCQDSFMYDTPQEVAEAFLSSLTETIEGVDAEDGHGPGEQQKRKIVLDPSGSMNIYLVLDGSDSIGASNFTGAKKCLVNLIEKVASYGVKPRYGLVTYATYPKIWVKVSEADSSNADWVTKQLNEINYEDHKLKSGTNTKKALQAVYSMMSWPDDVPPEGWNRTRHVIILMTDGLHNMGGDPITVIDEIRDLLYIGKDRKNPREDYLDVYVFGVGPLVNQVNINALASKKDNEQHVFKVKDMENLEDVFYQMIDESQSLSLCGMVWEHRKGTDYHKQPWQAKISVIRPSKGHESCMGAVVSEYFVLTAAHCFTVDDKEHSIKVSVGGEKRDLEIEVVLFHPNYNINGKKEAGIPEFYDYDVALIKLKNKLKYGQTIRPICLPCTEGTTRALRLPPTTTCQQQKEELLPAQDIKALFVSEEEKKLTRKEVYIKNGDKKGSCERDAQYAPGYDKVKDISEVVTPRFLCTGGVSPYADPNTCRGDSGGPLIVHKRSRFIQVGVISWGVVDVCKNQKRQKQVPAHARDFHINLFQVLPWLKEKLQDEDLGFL

Take `OC[C@H]1O[C@@H](O)[C@H](O)[C@@H](O)[C@@H]1O` [β-D-glucose]: in assay [1] (compared with -70° C. control), the “final concentration that completely prevented spontaneous iC3b fragment production” value is not below 1.3 M. Moreover, the “spontaneous iC3b fragment production” value in assay [1] (increasing final concentrations of compound (galactose up to 2M)) is recorded as “inhibited with increasing concentrations”. Also, the “prevention of spontaneous activation of Factor B (Bb fragment production)” value in assay [2] was “completely prevented”.
